Laboratory results: PMC11013010, “Serendipitous Identification of Azine Anticancer Agents Using a Privileged Scaffold Morphing Strategy” (Molecules, 2024)

Tests used:
[1] = Cytotoxicity assay (CellTiter Glo) on normal fibroblasts; format: cell-based, human; conditions: human, FB789 normal fibroblast cells
Method: (§1) Cell-based assays were carried out on the normal human fibroblast FB789 cell line (kindly provided by Elena Dell’Ambra from IRCCS Istituto Dermopatico dell’Immacolata, Rome), on the Huh7 hepatocarcinoma cell line (kindly provided by Istituto Toscano Tumori, Core Research Laboratory, Siena, Italy), on the Caco-2 adenocarcinoma colorectal cell line (ATCC catalog. n. HTB-37), on the suspension H9 cell line (repository code ARP0001, NIBSC Centre for AIDS reagents) and on the adherent TZM-bl cell line (repository code ARP5011, NIBSC Centre for AIDS reagents).
The FB789 was cultured in Dulbecco’s Modified Eagle Medium (DMEM) and Ham’s F10 in a ratio of 50%, supplemented with 10% FBS, 2 mM L-glutamine, and 10,000 unit/mL penicillin/streptomycin.
(§2) The cytotoxicity of all investigated compounds was assayed in all cells lines as previously described. Briefly, confluent cells were treated with decreasing compound concentrations for 48h. The final DMSO concentration used was never greater than 0.5% v/v. Each experiment was performed in duplicate and repeated in two independent experiments. Cell viability was calculated using the CellTiter Glo 2.0 kit (Promega, Madison, WI, USA) and luminescence values signal obtained from cells treated with serial dilution of the compounds were measured through the GloMax® Discover Multi mode Microplate Reader (Promega) and elaborated with GraphPad PRISM software version 9.0 (La Jolla, San Diego, CA, USA). […] A non-toxic dose of each compound was used as the starting concentration in the antiviral activity assay.

[2] = Cytotoxicity assay (CellTiter Glo) on hepatocarcinoma cells; format: cell-based; conditions: human, Huh7 hepatocarcinoma cells, Huh7 hepatocarcinoma
Method: as §1
(§3) High glucose Dulbecco’s Modified Eagle Medium with sodium pyruvate and L-glutamine (DMEM; Euroclone) was used to grow Huh-7 and TZM-bl. Minimum Essential Eagle Medium (EMEM; Euroclone) was used to propagate Caco-2. DMEM and EMEM were supplemented with 10% fetal bovine serum (FBS; Euroclone) and 1% penicillin/streptomycin (Pen/Strep, Euroclone). The growth medium with a lower concentration of FBS (1%) was used for viral propagation, cytotoxic and antiviral experiments in adherent cell lines. […] All cell lines were grown at 37 °C in a 5% CO2 atmosphere in a humidified incubator.
as §2

Huh7 cells = assay: as above; format: cell-based; conditions: ratio CC50 FB789 / CC50 Huh7
Method: as §1, §3, §2

[3] = Cytotoxicity assay (CellTiter Glo) on lymphoma cells; conditions: human
H9 cells = assay: as above; conditions: ratio CC50 FB789 / CC50 H9
[4] = Cytotoxicity assay (CellTiter Glo) on colon epithelial carcinoma cells; conditions: human, Caco-2
Caco-2 cells = assay: as above; conditions: ratio CC50 FB789 / CC50 Caco-2
[5] = triazines 1-9, read-out 48 h, Cell-Titer Glo
[6] = pyrimidines and pyridines, read out at 48 h, mean ± SD

SMILES	CC50 at 48 h [1, 5]	CC50 at 48 h ([2]; triazines 1-9, read-out 48 h)	TSI Huh7 (Huh7 cells; triazines 1-9)	CC50 at 48 h [3]	TSI H9 (H9 cells; triazines 1-9)	CC50 at 48 h [4]	TSI Caco-2 (Caco-2 cells; triazines 1-9)	CC50 at 48 h [1, 6]	CC50 at 48 h [2, 6]	TSI Caco-2 (Caco-2 cells; pyrimidines and pyridines)	TSI H9 (H9 cells; pyrimidines and pyridines)	TSI Huh7 (Huh7 cells; pyrimidines and pyridines)
CC(=O)Nc1ccc(/C=N/Nc2nc(N3CCOCC3)nc(N3CCOCC3)n2)cc1 [Compound 2]	134 ± 11 µM	> 200 µM	<0.7	> 100 µM	<1.3	> 200 µM	<0.7					
Cc1cccc(/C=N/Nc2nc(N3CCOCC3)nc(N3CCOCC3)n2)c1 [Compound 3]	250 ± 10 µM	45 ± 10 µM	5.6	74 ± 6.2 µM	3.4	184 ± 11 µM	1.4					
CC(=O)Nc1ccc(/C=N/Nc2nc(Nc3ccc(F)cc3)nc(N3CCOCC3)n2)cc1 [Compound 5]	27 ± 3 µM	45 ± 6 µM	0.6	30 ± 5 µM	0.9	70 ± 6 µM	0.4					
Cc1cccc(/C=N/Nc2nc(Nc3ccc(F)cc3)nc(N3CCOCC3)n2)c1 [Compound 6]	100 ± 8 µM	47 ± 5 µM	2.1	> 100 µM	<1.0	22 ± 2 µM	4.5					
Oc1ccccc1/C=N/Nc1nc(Nc2ccc(F)cc2)nc(Nc2ccc(F)cc2)n1 [Compound 7]	7 ± 2 µM	2 ± 0.4 µM	3.5	2 ± 1 µM	3.5	0.8 ± 0.1 µM	8.8					
CC(=O)Nc1ccc(/C=N/Nc2nc(Nc3ccc(F)cc3)nc(Nc3ccc(F)cc3)n2)cc1 [Compound 8]	57 ± 7 µM	> 200 µM	<0.3	> 100 µM	<0.6	> 200 µM	<0.3					
Cc1cccc(/C=N/Nc2nc(Nc3ccc(F)cc3)nc(Nc3ccc(F)cc3)n2)c1 [Compound 9]	50 ± 5 µM	> 200 µM		> 100 µM		200 µM						
Oc1ccccc1/C=N/Nc1cc(N2CCOCC2)nc(N2CCOCC2)n1 [Compound 14a]				> 100 µM		84 ± 7 µM		30 ± 6 µM	82 ± 6 µM			
Cc1cccc(/C=N/Nc2cc(N3CCOCC3)nc(N3CCOCC3)n2)c1 [Compound 14b]				14 ± 7 µM		11 ± 2 µM		9 ± 1 µM	8 ± 4 µM	0.8		
Cc1cccc(/C=N/Nc2cc(Nc3ccc(F)cc3)nc(N3CCOCC3)n2)c1 [Compound 21b]				> 100 µM		113 ± 4 µM		95 ± 1 µM	67 ± 23 µM	0.8	<1.0	
Oc1ccccc1/C=N/Nc1cc(N2CCOCC2)nc(N2CCOCC2)c1 [Compound 27a]				76 ± 4 µM		29 ± 2 µM		11 ± 3 µM	44 ± 5 µM			
Cc1cccc(/C=N/Nc2cc(N3CCOCC3)nc(N3CCOCC3)c2)c1 [Compound 27b]				50 ± 4 µM		30 ± 2 µM		81 ± 2 µM	39 ± 3 µM	2.7		
Oc1ccccc1/C=N/Nc1cc(Nc2ccc(F)cc2)nc(Nc2ccc(F)cc2)c1 [Compound 33a]				43 ± 9 µM		12 ± 4 µM		0.3 ± 0.3 µM	18 ± 5 µM	0.03	0.01	0.02
Oc1ccccc1/C=N/Nc1cc(Nc2ccc(F)cc2)nc(N2CCOCC2)c1 [Compound 38a]				37 ± 2 µM		19 ± 0.1 µM		3 ± 1 µM	24 ± 14 µM	0.2	0.1	0.1
